Data: ChEMBL document CHEMBL4340567, “Generation of C5-desoxy analogs of tetrahydroisoquinoline alkaloids exhibiting potent DNA alkylating ability” (Bioorg Med Chem Lett, 2019)
Activity calls are given as the source filed them. The rule behind the calls is not given here.

How the values were obtained:
[1] = Induction of alkylation in fluorescein-labelled 5'-GGG-3' double stranded DNA (unknown origin) at 100 uM incubated for 30 mins by EMSA relative to control
[2] = Induction of alkylation in fluorescein-labelled 5'-AGT-3' double stranded DNA (unknown origin) at 100 uM incubated for 30 mins by EMSA relative to control
[3] = Induction of alkylation in fluorescein-labelled 5'-GGC-3' double stranded DNA (unknown origin) at 100 uM incubated for 30 mins by EMSA relative to control
[4] = Induction of alkylation in fluorescein-labelled 5'-AGC-3' double stranded DNA (unknown origin) at 100 uM incubated for 30 mins by EMSA relative to control
[5] = Induction of alkylation in fluorescein-labelled 5'-CGG-3' double stranded DNA (unknown origin) at 100 uM incubated for 30 mins by EMSA relative to control
[6] = Induction of alkylation in fluorescein-labelled 5'-ATA-3' double stranded DNA (unknown origin) at 100 uM incubated for 30 mins by EMSA relative to control
[7] = Induction of alkylation in fluorescein-labelled 5'-GGG-3' double stranded DNA (unknown origin) at 2.5 uM incubated for 30 mins by EMSA relative to control
[8] = Reversible binding affinity to fluorescein-labelled 5'-GGG-3' double stranded DNA (unknown origin) at 100 uM incubated for 30 mins in presence of KCN by EMSA
[9] = Binding affinity to fluorescein-labelled 5'-GGG-3' double stranded DNA (unknown origin) assessed as formation of compound-dsDNA oligomer complex at five equivalents incubated for 30 mins by EMSA relative to control
[10] = Induction of alkylation in fluorescein-labelled 5'-GGG-3' double stranded DNA (unknown origin) at 50 uM incubated for 30 mins by EMSA relative to control
[11] = Induction of alkylation in fluorescein-labelled 5'-GGG-3' double stranded DNA (unknown origin) at 5 uM incubated for 30 mins by EMSA relative to control
[12] = Binding affinity to FAM-labelled 5'-GGG-3' double stranded DNA (unknown origin) assessed as migration of compound from 5'-AGT-3' to 5'-GGC-3' at 100 uM incubated for 30 mins by EMSA
[13] = Induction of alkylation in fluorescein-labelled 5'-GGG-3' double stranded DNA (unknown origin) incubated for 30 mins by EMSA relative to control
[14] = Induction of alkylation in fluorescein-labelled 5'-GGG-3' double stranded DNA (unknown origin) at 10 uM incubated for 30 mins by EMSA relative to control
[15] = Induction of alkylation in fluorescein-labelled 5'-GGG-3' double stranded DNA (unknown origin) at 25 uM incubated for 30 mins by EMSA relative to control

SMILES | Activity [1] | Activity [2] | Activity [3] [%] | Activity [4] [%] | Activity [5] [%] | Activity [6] | other results
COc1c(C)cc2c(c1O)[C@@H]1[C@@H]3Cc4cc(C)c(OC)c(O)c4[C@H](CNC(=O)[C@H](C)NC(=O)OCC4c5ccccc5-c5ccccc54)N3[C@@H](C#N)[C@H](C2)N1C | 22% | – | – | – | – | – | –
C=CCOC(=O)N[C@@H](C)C(=O)NC[C@H]1c2c(cc(C)c(OC)c2O)C[C@H]2[C@H]3c4c(cc(C)c(OC)c4O)C[C@@H]([C@H](C#N)N12)N3C | 86% | – | – | – | – | – | –
COC1=C(C)C(=O)C2=C(C1=O)[C@H](CNC(=O)[C@H](C)N)N1[C@@H](C#N)[C@@H]3Cc4cc(C)c(OC)c(O)c4[C@H]([C@@H]1C2)N3C | 31% | inactive | 53 | 17 | 33 | inactive | –
COc1c(C)cc2c(c1O)[C@@H]1[C@@H]3Cc4cc(C)c(OC)c(O)c4[C@H](CNC(=O)[C@H](C)N)N3[C@@H](C#N)[C@H](C2)N1C | > 90% | 36% | 94 | 80 | 63 | inactive | Activity [7]: 10%; Activity [8]: Active; Activity [9]: > 95%; Activity [10]: > 95%; Activity [11]: 41%; Activity [12]: Active; Activity [13]: Dose-dependent effect; Activity [14]: 85%; Activity [15]: > 95%
CCCCCCCCC/C=C/COC(=O)N[C@@H](C)C(=O)NC[C@H]1c2c(cc(C)c(OC)c2O)C[C@H]2[C@H]3c4c(cc(C)c(OC)c4O)C[C@@H]([C@H](C#N)N12)N3C | inactive | – | – | – | – | – | –
